System: human umbilical vein endothelial cells (HUVECs)
Assay: Uptake of dye-loaded AScMs in HUVEC monitored by cellular accumulation of fluorescent dyes
Type: cell-based
Experimental: Methods Amphiphilic scorpion-like macromolecules (AScMs) are block copolymers that form micelles at concentrations above their CMC (5×10^−7 M). The uptake of AScMs was investigated in human umbilical vein endothelial cells (HUVECs) by monitoring cellular accumulation of the fluorescent dyes (R110, R123 and LY, respectively). Briefly, fluorescent dyes were added to AScMs solutions (0.0001-1 mM) and incubated at 37° C. for at least 6 hours prior to cell incubation. After determination of R110, R123 and LY partitioning into the AScMs micelles, dye-loaded AScMs were incubated with HUVEC. Uptake of dye-loaded AScMs was investigated as a function of time (15, 30, 60, 90 and 120 minutes) and AScMs concentration (0.0001-1 mM). Furthermore, intracellular distribution and localization of dye-loaded AScMs in HUVEC was investigated using confocal microscope. […] The decreased accumulation of R110, R123 and LY in HUVEC monolayers was inversely correlated with the extent of their partitioning into AScMs. Uptake of R110, R123 and LY-loaded micelles was also time-dependent. […] Furthermore, confocal microscopy studies confirmed increased fluorescence activity in the cells with increase in the incubation time. […] Thus, AScMs can be used to localize therapeutic compounds into cells, for example, to achieve a sustained therapeutic effect.

[1] = AScMs at concentrations above the CMC
[2] = AScMs at concentrations below the CMC

COC(=O)c1ccccc1-c1c2ccc(N)cc2[o+]c2cc(N)ccc12 [R123]
dye accumulation in HUVEC monolayers [1]: significant decrease | dye accumulation in HUVEC monolayers [2]: significant increase

Nc1ccc2c(-c3ccccc3C(=O)O)c3ccc(N)cc3[o+]c2c1.[Cl-] [R110]
dye accumulation in HUVEC monolayers [1]: significant decrease | dye accumulation in HUVEC monolayers [2]: significant increase

NNC(=O)NN1C(=O)c2cc(S(=O)(=O)[O-])cc3c(N)c(S(=O)(=O)[O-])cc(c23)C1=O.[Li+].[Li+] [LY]
dye accumulation in HUVEC monolayers [1]: significant decrease | dye accumulation in HUVEC monolayers [2]: significant increase

From US20120022159A1, “AMPHIPHILIC STAR-LIKE OR SCORPION-LIKE MACROMOLECULES, VARIOUS COMPOSITIONS AND USES THEREOF” (priority 2004, published 2012)
